Drawing on patent publication US20050143382A1 (4SC AG, priority 2003, published 2005), this text covers IC50 for 25 compounds.

Each structure is given as a SMILES string. Bounds are passed on as bounds.

Holding throughout (assay type): biochemical
Holding throughout (details): recombinant human kinase, 1 μM ATP

One assay concerns the target T1, Aurora B kinase (Homo sapiens, UniProt Q96GD4).
T1 construct: made in house; host or cells: Sf9 insect cells (baculovirus)
In words: 33PanQinase protein kinase activity assay, Aurora B. How it is done: (§1) The effect of the farazanopyrazine derivatives was tested on recombinant, human protein kinases. All protein kinases were expressed in Sf9 insect cells as human recombinant GST-fusion proteins or as His-tagged proteins by means of the baculovirus expression system. Protein kinases were purified by affinity chromatography using either GSH-agarose or Ni-NTH-agarose. The purity and identity of each was checked by SDS-PAGE/silver staining and by western blot analysis with specific antibodies.
(§2) A proprietary protein kinase assay (^33 PanQinase® Activity Assay) was used for measuring the kinase activity. All kinase assays were performed in 96-well FlashPlates™ in a 50 μl reaction volume. The assay for all enzymes contained 60 mM HEPES-NaOH, pH 7.5, 3 mM MgCl2, 3 mM MnCl2, 3 μM Na-orthovanadate, 1.2 mM DTT, 50 μg/ml PEG20000 and 1 μM [γ-^33P]-ATP (approx. 5×10^5 cpm per well).
(§3) The reaction cocktails were incubated at 30° C. for 80 minutes. The reaction was stopped with 50 μl of 2% (v/v) H3PO4, plates were aspirated and washed two times with 200 μl of 0.9% (w/v) NaCl. Incorporation of 33Pi was determined with a microplate scintillation counter. All assays were performed with a BeckmanCoulter/Sagian robotic system.

The next assay addresses T2, IGF-1 R (Homo sapiens, UniProt P08069).
T2 construct: made in house; host or cells: Sf9 insect cells (baculovirus)
The assay is described as follows: 33PanQinase protein kinase activity assay, IGF-1 R. How it is done: as §1, §2, §3

The next assay has as its target T3, VEGF-R2 (Homo sapiens, UniProt P35968).
T3 construct: made in house; host or cells: Sf9 insect cells (baculovirus)
In words: 33PanQinase protein kinase activity assay, VEGF-R2. How it is done: as §1, §2, §3

A further assay has as its target T4, SRC kinase (Homo sapiens, UniProt P12931).
T4 construct: made in house; host or cells: Sf9 insect cells (baculovirus)
In words: 33PanQinase protein kinase activity assay, SRC. The protocol: as §1, §2, §3

T1 sequence (Q96GD4 whole entry): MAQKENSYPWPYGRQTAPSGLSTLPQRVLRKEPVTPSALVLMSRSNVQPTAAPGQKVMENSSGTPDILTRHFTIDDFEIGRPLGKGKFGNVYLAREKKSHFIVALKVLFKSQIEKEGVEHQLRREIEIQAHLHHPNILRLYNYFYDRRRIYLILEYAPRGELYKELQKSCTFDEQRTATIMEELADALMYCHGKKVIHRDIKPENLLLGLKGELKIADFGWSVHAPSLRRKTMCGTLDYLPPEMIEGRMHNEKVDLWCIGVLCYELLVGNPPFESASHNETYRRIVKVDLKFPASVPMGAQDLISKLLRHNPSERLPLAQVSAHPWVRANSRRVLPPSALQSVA
T2 sequence (P08069 31-1367): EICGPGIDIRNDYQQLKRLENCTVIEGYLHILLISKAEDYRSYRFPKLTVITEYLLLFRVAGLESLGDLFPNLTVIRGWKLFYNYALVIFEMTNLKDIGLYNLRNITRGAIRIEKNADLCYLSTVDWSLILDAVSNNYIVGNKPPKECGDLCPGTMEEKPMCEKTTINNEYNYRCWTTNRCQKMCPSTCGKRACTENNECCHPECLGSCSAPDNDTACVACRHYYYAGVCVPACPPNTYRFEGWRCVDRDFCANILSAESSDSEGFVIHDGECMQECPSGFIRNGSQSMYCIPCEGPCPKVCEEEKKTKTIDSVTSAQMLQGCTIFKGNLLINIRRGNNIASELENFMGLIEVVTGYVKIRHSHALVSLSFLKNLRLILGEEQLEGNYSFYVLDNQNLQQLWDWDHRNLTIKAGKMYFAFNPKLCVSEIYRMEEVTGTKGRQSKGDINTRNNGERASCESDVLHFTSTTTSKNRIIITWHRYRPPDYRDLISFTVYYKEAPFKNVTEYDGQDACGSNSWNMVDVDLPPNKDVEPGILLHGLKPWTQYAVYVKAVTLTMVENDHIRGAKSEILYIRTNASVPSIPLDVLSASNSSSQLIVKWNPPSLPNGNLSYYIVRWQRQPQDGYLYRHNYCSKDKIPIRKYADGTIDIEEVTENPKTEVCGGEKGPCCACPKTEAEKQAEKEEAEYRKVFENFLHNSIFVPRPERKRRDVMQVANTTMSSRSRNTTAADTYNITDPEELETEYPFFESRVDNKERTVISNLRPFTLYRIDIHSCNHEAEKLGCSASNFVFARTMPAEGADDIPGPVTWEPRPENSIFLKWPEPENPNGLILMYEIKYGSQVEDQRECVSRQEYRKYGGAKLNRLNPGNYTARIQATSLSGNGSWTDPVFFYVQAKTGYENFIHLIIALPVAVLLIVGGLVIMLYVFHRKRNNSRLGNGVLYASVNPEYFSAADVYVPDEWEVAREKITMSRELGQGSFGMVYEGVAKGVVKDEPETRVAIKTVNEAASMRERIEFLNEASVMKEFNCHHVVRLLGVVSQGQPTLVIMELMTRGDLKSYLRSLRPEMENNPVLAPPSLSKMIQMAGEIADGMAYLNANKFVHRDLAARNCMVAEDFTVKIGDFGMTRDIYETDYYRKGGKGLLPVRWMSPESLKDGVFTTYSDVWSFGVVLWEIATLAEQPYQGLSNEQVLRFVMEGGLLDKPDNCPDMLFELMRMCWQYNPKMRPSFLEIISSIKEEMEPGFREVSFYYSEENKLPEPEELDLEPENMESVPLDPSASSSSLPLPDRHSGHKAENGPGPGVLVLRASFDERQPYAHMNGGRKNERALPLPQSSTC
T4 sequence (P12931 whole entry): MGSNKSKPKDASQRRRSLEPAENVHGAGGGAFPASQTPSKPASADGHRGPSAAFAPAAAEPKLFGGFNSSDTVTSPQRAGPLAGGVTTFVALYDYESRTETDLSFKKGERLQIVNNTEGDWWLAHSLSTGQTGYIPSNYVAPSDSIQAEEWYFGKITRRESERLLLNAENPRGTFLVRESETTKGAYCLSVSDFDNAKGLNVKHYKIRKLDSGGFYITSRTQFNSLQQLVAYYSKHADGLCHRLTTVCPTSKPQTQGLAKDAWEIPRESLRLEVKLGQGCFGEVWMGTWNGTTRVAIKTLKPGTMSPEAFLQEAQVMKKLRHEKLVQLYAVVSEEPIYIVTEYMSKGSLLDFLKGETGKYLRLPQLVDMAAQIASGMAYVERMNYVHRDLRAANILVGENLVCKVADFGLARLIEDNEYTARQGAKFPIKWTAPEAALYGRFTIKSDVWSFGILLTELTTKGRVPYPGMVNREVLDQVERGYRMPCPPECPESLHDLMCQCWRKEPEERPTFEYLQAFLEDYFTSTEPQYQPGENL
T3 sequence (P35968 20-1356): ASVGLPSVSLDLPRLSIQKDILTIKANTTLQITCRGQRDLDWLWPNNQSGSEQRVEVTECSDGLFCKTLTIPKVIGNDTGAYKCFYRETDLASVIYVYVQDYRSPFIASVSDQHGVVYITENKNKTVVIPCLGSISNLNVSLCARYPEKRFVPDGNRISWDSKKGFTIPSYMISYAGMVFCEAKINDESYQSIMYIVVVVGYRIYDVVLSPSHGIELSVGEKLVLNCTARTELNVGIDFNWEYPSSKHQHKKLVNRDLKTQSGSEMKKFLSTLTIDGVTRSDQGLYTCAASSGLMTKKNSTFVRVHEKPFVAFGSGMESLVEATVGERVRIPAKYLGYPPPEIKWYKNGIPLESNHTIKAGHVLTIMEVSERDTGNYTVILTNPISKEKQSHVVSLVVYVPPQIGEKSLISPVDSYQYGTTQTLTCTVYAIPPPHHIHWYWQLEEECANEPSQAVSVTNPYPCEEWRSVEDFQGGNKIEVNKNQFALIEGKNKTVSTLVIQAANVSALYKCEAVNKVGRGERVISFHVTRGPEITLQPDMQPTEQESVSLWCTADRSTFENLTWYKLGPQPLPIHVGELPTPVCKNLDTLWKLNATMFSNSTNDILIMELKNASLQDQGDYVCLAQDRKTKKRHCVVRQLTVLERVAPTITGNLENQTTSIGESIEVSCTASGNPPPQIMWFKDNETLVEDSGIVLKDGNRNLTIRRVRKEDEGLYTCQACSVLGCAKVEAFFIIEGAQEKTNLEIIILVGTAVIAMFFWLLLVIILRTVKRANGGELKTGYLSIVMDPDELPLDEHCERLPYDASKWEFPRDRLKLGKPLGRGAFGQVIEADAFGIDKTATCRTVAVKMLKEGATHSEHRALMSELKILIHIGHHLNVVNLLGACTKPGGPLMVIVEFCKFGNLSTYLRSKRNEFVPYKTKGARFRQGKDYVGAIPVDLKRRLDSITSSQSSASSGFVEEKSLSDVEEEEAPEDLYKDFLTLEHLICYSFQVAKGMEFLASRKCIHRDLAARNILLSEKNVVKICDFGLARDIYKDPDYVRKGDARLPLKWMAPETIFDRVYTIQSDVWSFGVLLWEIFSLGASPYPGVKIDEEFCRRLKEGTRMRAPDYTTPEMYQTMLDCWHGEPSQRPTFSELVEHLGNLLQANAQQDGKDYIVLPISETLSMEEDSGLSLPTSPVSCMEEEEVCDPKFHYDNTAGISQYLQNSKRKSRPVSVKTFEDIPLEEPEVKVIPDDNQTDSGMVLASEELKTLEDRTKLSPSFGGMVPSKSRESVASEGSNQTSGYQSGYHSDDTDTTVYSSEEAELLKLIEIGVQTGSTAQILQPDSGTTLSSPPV

The term IC50 denotes the point on the concentration scale where inhibition reaches its midpoint. Consider `Oc1ccc(C=NNc2nc3nonc3nc2Nc2ccccc2)c(O)c1` [Example 81], for which, at Aurora B kinase, the IC50 is below 10000 nM.

Regarding `Oc1ccc(C=NNc2nc3nonc3nc2Nc2cccc(Cl)c2)c(O)c1` [Example 147], the IC50 at Aurora B kinase is below 10000 nM.

For the compound `O=C1Nc2ccccc2C1=NNc1nc2nonc2nc1Nc1ccccc1` [Example 95, 3-[(6-Phenylamino-[1,2,5]oxadiazolo [3,4-b]pyrazin-5-yl)-hydrazono]-1,3-dihydro-indol-2-one], the IC50 at Aurora B kinase is below 10000 nM; at IGF-1 R it was below 1000 nM.

Turning to `COc1ccccc1Nc1nc2nonc2nc1NN=Cc1cc(I)cc(I)c1O` [Example 47], the IC50 on Aurora B kinase was below 10000 nM.

As for `O=C(O)c1cc(-c2ccc(C=NNc3nc4nonc4nc3Nc3ccccc3F)o2)ccc1O` [Example 23], the half-inhibitory concentration (IC50) is below 2000 nM on VEGF-R2, below 1000 nM at SRC kinase, below 10000 nM on Aurora B kinase and below 1000 nM on IGF-1 R.

Turning to `O=C(O)c1cccc(-c2ccc(C=NNc3nc4nonc4nc3Nc3ccccc3)o2)c1` [Example 89], the IC50 at Aurora B kinase was below 10000 nM.

Take `O=C(O)c1cccc(-c2ccc(C=NNc3nc4nonc4nc3Nc3cccc(Cl)c3)o2)c1` [Example 154]: the concentration for half-maximal inhibition (IC50) at VEGF-R2 is below 2000 nM; on SRC kinase it was below 1000 nM; at Aurora B kinase it was below 10000 nM; at IGF-1 R, below 1000 nM.

In the case of `COc1cc(C=NNc2nc3nonc3nc2Nc2ccccc2F)cc([N+](=O)[O-])c1O` [Example 7], the IC50 was below 2000 nM on VEGF-R2, below 1000 nM on SRC kinase and below 10000 nM at Aurora B kinase.

In the case of `Oc1ccc(C=NNc2nc3nonc3nc2Nc2ccc(F)c(Cl)c2)c(O)c1` [Example 165], the IC50 on VEGF-R2 is below 2000 nM; on Aurora B kinase, below 10000 nM.

Consider `O=C(O)c1cc(-c2ccc(C=NNc3nc4nonc4nc3Nc3ccc(Br)cc3)o2)ccc1Cl` [Example 52], for which the IC50 at VEGF-R2 is below 2000 nM; on SRC kinase, below 1000 nM; at Aurora B kinase, below 10000 nM; at IGF-1 R, below 1000 nM.

For `Oc1ccc(C=NNc2nc3nonc3nc2Nc2ccc(Cl)c(Cl)c2)c(O)c1` [Example 189], the IC50 on Aurora B kinase is below 10000 nM.

As to `O=C(O)c1cccc(-c2ccc(C=NNc3nc4nonc4nc3Nc3ccc(F)c(Cl)c3)o2)c1` [Example 173], the figures for the half-inhibitory concentration (IC50) on SRC kinase, on Aurora B kinase and at IGF-1 R were below 1000 nM, below 10000 nM and below 1000 nM, respectively.

Take `O=C(O)c1ccc(-c2ccc(C=NNc3nc4nonc4nc3NCc3ccccc3)o2)cc1` [Example 117]: the IC50 on Aurora B kinase is below 10000 nM.

As to `Oc1ccc(C=NNc2nc3nonc3nc2Nc2ccc(F)cc2)c(O)c1` [Example 126], at Aurora B kinase, the IC50 was below 10000 nM.

Consider `O=C(O)c1cc(-c2ccc(C=NNc3nc4nonc4nc3Nc3ccc(Cl)c(Cl)c3)o2)ccc1Cl` [Example 196], for which the IC50 on VEGF-R2 is below 2000 nM; on SRC kinase, below 1000 nM; at Aurora B kinase, below 10000 nM; at IGF-1 R it was below 1000 nM.

Regarding `O=S(=O)(O)c1ccc(C=NNc2nc3nonc3nc2Nc2ccc(F)c(Cl)c2)o1` [Example 181], on Aurora B kinase, the IC50 was below 10000 nM.

`O=C(O)c1cc(-c2ccc(C=NNc3nc4nonc4nc3Nc3ccc(F)c(Cl)c3)o2)ccc1Cl` [Example 176]: the IC50 at VEGF-R2 is below 2000 nM; at SRC kinase, below 1000 nM; on Aurora B kinase, below 10000 nM; on IGF-1 R, below 1000 nM.

Take `O=C(O)c1cccc(-c2ccc(C=NNc3nc4nonc4nc3NCc3ccccc3)o2)c1` [Example 111]: the IC50 at Aurora B kinase is below 10000 nM.

Consider `O=C(O)c1ccc(-c2ccc(C=NNc3nc4nonc4nc3Nc3ccc(Cl)c(Cl)c3)o2)cc1` [Example 199], for which the concentration for half-maximal inhibition (IC50) at VEGF-R2 is below 2000 nM; at SRC kinase, below 1000 nM; at Aurora B kinase, below 10000 nM; on IGF-1 R, below 1000 nM.

For `O=C(O)c1cccc(-c2ccc(C=NNc3nc4nonc4nc3Nc3ccc(Cl)c(Cl)c3)o2)c1` [Example 194], the IC50 at VEGF-R2 was below 2000 nM; on SRC kinase it was below 1000 nM; at Aurora B kinase, below 10000 nM; on IGF-1 R it was below 1000 nM.

On to `O=C1Nc2ccccc2C1=NNc1nc2nonc2nc1Nc1ccc(F)c(Cl)c1` [Example 182, 3-{1[6-(3-Chloro-4-fluoro-phenylamino)-[1,2,5]oxadiazolo[3,4-b]pyrazin-5-yl]-hydrazono}-1,3-dihydro-indol-2-one], for which the IC50 is below 2000 nM on VEGF-R2, below 1000 nM at SRC kinase and below 1000 nM on IGF-1 R.

For `NC(=O)c1cccc(-c2ccc(C=NNc3nc4nonc4nc3Nc3ccc(Cl)c(Cl)c3)o2)c1` [Example 198], the IC50 at VEGF-R2 is below 2000 nM; at SRC kinase, below 1000 nM; at IGF-1 R it was below 1000 nM.

As to `Fc1ccc(Nc2nc3nonc3nc2NN=Cc2cc3ccccc3o2)cc1Cl` [Example 172, [6-(N′-Benzofuran-2-ylmethylene-hydrazino)-[1,2,5]oxadiazolo[3,4-b]pyrazin-5-yl]-(3-chloro-4-fluoro-phenyl)-amine], the IC50 at VEGF-R2 is below 2000 nM; on SRC kinase it was below 1000 nM; at IGF-1 R it was below 1000 nM.

In the case of `COc1ccc(O)c(C=NNc2nc3nonc3nc2Nc2ccc(Cl)c(Cl)c2)c1` [Example 191], the IC50 on VEGF-R2 is below 2000 nM; on SRC kinase it was below 1000 nM; at IGF-1 R, below 1000 nM.

As to `COc1cc(Br)cc(C=NNc2nc3nonc3nc2Nc2cccc(Cl)c2)c1O` [Example 152], the IC50 at VEGF-R2 was below 2000 nM; at SRC kinase, below 1000 nM; at IGF-1 R it was below 1000 nM.
